“Also recorded” adds a separate entry of the source.
Key:
[1] = test system: human keratinocytes (HaCaT); experiment: In vitro YAP pathway activation and cell proliferation in human keratinocytes (HaCaT); type: cell-based
Text: Accordingly, Example 133 is useful in promoting skin regeneration.

LATS1 = LATS1 (Homo sapiens (Human), UniProt O95835); experiment: Target Identification Assay: inhibition of LATS1 activity (FIG. 33C); type: biochemical; conditions: read-out: IC50 against LATS1
Text: The result further confirmed that the compounds of the invention are potent inhibitors of the LATS kinases.

YAP target gene Cyr61 = experiment: In Vivo PD Assay: YAP target gene expression in mouse excisional wounds; conditions: mouse full-thickness excisional wounds, topical 0.2 and 2 mg/mL, two daily doses, vs vehicle, dose-dependent
Description: The compounds of the invention also activate the YAP pathway in vivo. A study of YAP pathway target gene expression was conducted in an in vivo mouse model as described in the In Vivo PD Assay in the Examples Section A. Two full-thickness excisional wounds on the dorsum of an anesthetized mouse were treated topically with vehicle, or 0.2 and 2 mg/mL of Example 133. After two daily doses, the skin samples around the wound edge were collected and Taqman analyses were performed using Cyr61 and Gapdh probes. mRNA expression levels for the target genes were normalized to Gapdh mRNA levels and plotted against the concentration of Example 133 in FIG. 34. […] The result is consistent with known LATS biology for activation of the YAP pathway.

[2] = test system: phospho-YAP (ser127) in human CECs; experiment: YAP phosphorylation by western blot in CECs; type: cell-based; conditions: 10 micromolar, 1 hour
Description: Cells obtained as described in Example C1 were detached from the culture dish with 1 mg/ml collagenase for 15 minutes at 37° C., cell suspensions were rinsed by centrifugation and plated in corneal endothelial cell culture medium (human endothelial SF medium (Invitrogen) with human serum) in 6-well plates (Corning) and cultured for 2 to 4 days. The medium was then replaced by fresh corneal endothelial cell culture medium (human endothelial SF medium (Invitrogen) with human serum) supplemented with LATS inhibitor, compound example no. […] Cells were cultured under these conditions for 1 hour at 37° C. in 5% CO2.
Cell pellets were obtained by trypsin dissociation and centrifugation and washed with PBS. The pellets were lysed with […] of RIPA lysis buffer containing protease inhibitor cocktail (Life Technologies) for 30 minutes, with vortexing every 10 minutes. The cell debris were then pelleted at 4° C. for 15 minutes at 14k rpm and the protein lysate was collected. Protein concentration was quantified using a micro BCA kit (Pierce). Fifteen (15) micrograms of total protein was loaded in each well of 4-20% TGX gels (BioRad) and Western blotting was performed according to the manufacturer's instructions. […] Membranes were stained with HRP-conjugated secondary antibodies, rinsed and imaged using a ChemiDoc system (Biorad) according to the manufacturer's instructions.

[3] = test system: Phospho-YAP (SER127) in liver tissue; experiment: In vivo treatment of mice: Phospho-YAP (pYAP) HTRF in liver tissue; conditions: mouse liver, single oral dose 10 mg/kg
Description: All animal studies were carried out in accordance with federal, state, local and institutional guidelines governing the use of laboratory animals in research. Male C57BL/6J mice (age 8-10 weeks) were purchased from Jackson Labs (Bar Harbor, Me.). Example 46 was formulated for oral dosing at 3 mg/ml, and Example 261 at 1 mg/ml, in a suspension of methylcellulose:Tween80:Water (0.5:0.5:99). Single oral dose of either compound was at 10 mL/kg body weight. Blood and liver tissue were collected under deep anesthesia (isoflurane) at either 2 h post-dose (for mRNA analysis) or 24 h post-dose (for immunohistochemistry).
Frozen liver tissue was transferred into a Lysing Matrix tube (MP, cat #6913-500) with a 1:50 solution of Protease inhibitor (Sigma-Aldrich, cat #P8340) in Phosphosafe extraction buffer (Novagen, cat #71296-3) and homogenized using the FastPrep-24 (MP biomedicals). […] The protein concentration was measured using the BCA Protein Assay Kit (Pierce cat. 23227) following the manufacturer's protocol. […] The same input quantity was used for each sample, based on total protein content (30-60 ug per sample per well). […] Plates were read on an EnVision (PerkinElmer) with emission wavelengths of 665 nm & 620 nm. The HTRF signal ratio was calculated as Signal(665 nm)/Signal(620 nm))×10000 as specified in the manufacturer's protocol. […]

Sequence of LATS1 (O95835 whole entry): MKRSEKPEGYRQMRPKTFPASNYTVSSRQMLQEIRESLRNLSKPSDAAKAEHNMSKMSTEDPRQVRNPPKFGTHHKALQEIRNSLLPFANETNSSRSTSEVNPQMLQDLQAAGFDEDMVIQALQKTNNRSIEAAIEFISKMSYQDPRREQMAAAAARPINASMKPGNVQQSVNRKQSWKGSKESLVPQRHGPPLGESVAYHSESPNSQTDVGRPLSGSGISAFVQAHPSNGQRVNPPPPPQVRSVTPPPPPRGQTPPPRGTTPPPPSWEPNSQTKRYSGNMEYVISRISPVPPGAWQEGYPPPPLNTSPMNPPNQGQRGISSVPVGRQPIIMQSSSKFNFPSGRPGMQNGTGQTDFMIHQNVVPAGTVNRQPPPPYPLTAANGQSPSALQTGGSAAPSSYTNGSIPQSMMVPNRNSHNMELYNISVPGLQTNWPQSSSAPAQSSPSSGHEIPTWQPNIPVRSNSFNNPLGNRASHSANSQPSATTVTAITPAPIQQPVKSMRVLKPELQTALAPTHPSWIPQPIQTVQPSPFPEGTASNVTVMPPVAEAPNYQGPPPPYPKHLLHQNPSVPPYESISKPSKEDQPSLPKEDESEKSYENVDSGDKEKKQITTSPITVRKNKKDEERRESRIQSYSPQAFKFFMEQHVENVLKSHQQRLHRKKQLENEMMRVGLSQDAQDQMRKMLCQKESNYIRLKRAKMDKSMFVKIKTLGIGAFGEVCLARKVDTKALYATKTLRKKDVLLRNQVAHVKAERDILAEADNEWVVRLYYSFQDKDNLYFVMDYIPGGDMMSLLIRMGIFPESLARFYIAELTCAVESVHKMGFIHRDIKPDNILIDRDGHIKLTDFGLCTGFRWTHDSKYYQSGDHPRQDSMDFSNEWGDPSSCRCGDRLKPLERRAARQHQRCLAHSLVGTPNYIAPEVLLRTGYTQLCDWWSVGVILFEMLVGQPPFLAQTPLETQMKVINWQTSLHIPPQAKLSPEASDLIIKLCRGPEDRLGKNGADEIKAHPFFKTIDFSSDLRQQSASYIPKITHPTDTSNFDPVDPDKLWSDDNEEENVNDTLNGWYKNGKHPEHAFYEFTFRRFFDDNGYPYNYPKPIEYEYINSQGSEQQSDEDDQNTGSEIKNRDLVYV

Row | SMILES | YAP pathway activation in vitro [1] | cell proliferation in human keratinocytes (HaCaT) [1] | IC50 (LATS1) | YAP target gene Cyr61 mRNA normalized to Gapdh (YAP target gene Cyr61) | YAP phosphorylation levels in human CECs (western blot) [2] | pYAP (% of control) [3]
1 | Cc1n[nH]cc1-c1nc(NC2(C)CC2)c2ccncc2n1 [Example 133, 2-(3-methyl-1H-pyrazol-4-yl)-N-(1-methylcyclopropyl)pyrido[3,4-d]pyrimidin-4-amine] | activated the YAP pathway | promoted cell proliferation | 1.3 nM | significantly up-regulated; also recorded: induced YAP target gene expression | reduction in YAP phosphorylation levels in human CECs | 
2 | CC(C)(O)CC(C)(C)Nc1nc(-c2ccncc2)nc2cnccc12 [Example 49, 2,4-dimethyl-4-{[2-(pyridin-4-yl)pyrido[3,4-d]pyrimidin-4-yl]amino}pentan-2-ol] |  |  |  |  | reduction in YAP phosphorylation levels in human CECs | 
3 | CC(C)(C)Nc1cc(-c2ccncc2)nc2cnccc12 [Example 261, N-(tert-butyl)-2-(pyridin-4-yl)-1,7-naphthyridin-4-amine] |  |  |  |  |  | 60 % of control
